Reference: PubChem BioAssay (NCI)
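These data come from cells grown in 96-well plates and exposed to compound for 48 hours at five concentrations. The concentration for 50% growth inhibition is given as GI50. TGI is the concentration that stops growth completely.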

Legend:
Assay in all cases: NCI-60 cell line screen, 48 h
M14 melanoma = system: M14 melanoma
LOX IMVI melanoma = system: LOX IMVI melanoma
U251 CNS = system: U251 CNS
CCRF-CEM leukemia = system: CCRF-CEM leukemia
UACC-62 melanoma = system: UACC-62 melanoma
BT-549 breast = system: BT-549 breast
SR leukemia = system: SR leukemia
TK-10 renal = system: TK-10 renal
MOLT-4 leukemia = system: MOLT-4 leukemia
OVCAR-3 ovarian = system: OVCAR-3 ovarian
OVCAR-4 ovarian = system: OVCAR-4 ovarian
SK-MEL-5 melanoma = system: SK-MEL-5 melanoma
SNB-75 CNS = system: SNB-75 CNS
SK-MEL-2 melanoma = system: SK-MEL-2 melanoma
RXF 393 renal = system: RXF 393 renal
HCT-15 colon = system: HCT-15 colon
MDA-MB-231 breast = system: MDA-MB-231 breast
MALME-3M melanoma = system: MALME-3M melanoma
SK-OV-3 ovarian = system: SK-OV-3 ovarian
SW-620 colon = system: SW-620 colon
EKVX NSCLC = system: EKVX NSCLC
HL-60(TB) leukemia = system: HL-60(TB) leukemia
UO-31 renal = system: UO-31 renal
MDA-MB-435 = system: MDA-MB-435
SNB-19 CNS = system: SNB-19 CNS
HOP-62 NSCLC = system: HOP-62 NSCLC
HOP-92 NSCLC = system: HOP-92 NSCLC
MCF7 breast = system: MCF7 breast
HS 578T breast = system: HS 578T breast
NCI/ADR-RES ovarian = system: NCI/ADR-RES ovarian
OVCAR-5 ovarian = system: OVCAR-5 ovarian
HCC-2998 colon = system: HCC-2998 colon
A498 renal = system: A498 renal
SF-539 CNS = system: SF-539 CNS
NCI-H23 lung = system: NCI-H23 lung
SF-295 CNS = system: SF-295 CNS
IGROV1 ovarian = system: IGROV1 ovarian
A549 NSCLC = system: A549 NSCLC
RPMI-8226 leukemia = system: RPMI-8226 leukemia
CAKI-1 renal = system: CAKI-1 renal
ACHN renal = system: ACHN renal
PC-3 prostate = system: PC-3 prostate
K-562 leukemia = system: K-562 leukemia
NCI-H522 lung = system: NCI-H522 lung
UACC-257 melanoma = system: UACC-257 melanoma
HCT-116 colon = system: HCT-116 colon
KM12 colon = system: KM12 colon
SF-268 CNS = system: SF-268 CNS
NCI-H460 lung = system: NCI-H460 lung
DU-145 prostate = system: DU-145 prostate
OVCAR-8 ovarian = system: OVCAR-8 ovarian
SN12C renal = system: SN12C renal
T-47D breast = system: T-47D breast
NCI-H226 lung = system: NCI-H226 lung
COLO 205 colon = system: COLO 205 colon
786-0 renal = system: 786-0 renal
HT29 colon = system: HT29 colon

`c1cc(OCCN2CCCCCC2)ccc1CNc1ccc2nc(CCC3CCCCC3)[nH]c2c1` showed a GI50 (M14 melanoma) of 1.72 µM, a TGI (M14 melanoma) of 3.32 µM and a GI50 (LOX IMVI melanoma) of 1.74 µM. For the same compound, the TGI (LOX IMVI melanoma) was 3.2 µM, the GI50 (U251 CNS) was 1.6 µM and the TGI (U251 CNS) was 3.17 µM. It also gave a GI50 (CCRF-CEM leukemia) of 2.08 µM, a TGI (CCRF-CEM leukemia) of 10.1 µM and a GI50 (UACC-62 melanoma) of 1.84 µM. For the same compound, the TGI (UACC-62 melanoma) was 3.35 µM, the GI50 (BT-549 breast) was 1.83 µM and the TGI (BT-549 breast) was 5.54 µM. For the same compound, the GI50 (SR leukemia) was 1.73 µM, the TGI (SR leukemia) was 5.34 µM and the GI50 (TK-10 renal) was 3.18 µM. It also gave a TGI (TK-10 renal) of 10.9 µM, a GI50 (MOLT-4 leukemia) of 1.69 µM and a TGI (MOLT-4 leukemia) of 6.74 µM. The GI50 (OVCAR-3 ovarian) was 1.89 µM, the TGI (OVCAR-3 ovarian) was 4.25 µM and the GI50 (OVCAR-4 ovarian) was 3.2 µM. It also gave a TGI (OVCAR-4 ovarian) of 13.8 µM, a GI50 (SK-MEL-5 melanoma) of 1.74 µM and a TGI (SK-MEL-5 melanoma) of 3.17 µM. The GI50 (SNB-75 CNS) was 1.5 µM, the TGI (SNB-75 CNS) was 4.52 µM and the GI50 (SK-MEL-2 melanoma) was 1.88 µM. For the same compound, the TGI (SK-MEL-2 melanoma) was 3.63 µM, the GI50 (RXF 393 renal) was 1.53 µM and the TGI (RXF 393 renal) was 4.4 µM. The GI50 (HCT-15 colon) was 1.59 µM, the TGI (HCT-15 colon) was 3.67 µM and the GI50 (MDA-MB-231 breast) was 1.56 µM. For the same compound, the TGI (MDA-MB-231 breast) was 2.97 µM, the GI50 (MALME-3M melanoma) was 1.64 µM and the TGI (MALME-3M melanoma) was 3.1 µM. It also gave a GI50 (SK-OV-3 ovarian) of 2.18 µM, a TGI (SK-OV-3 ovarian) of 4.84 µM and a GI50 (SW-620 colon) of 1.87 µM. The TGI (SW-620 colon) was 4 µM, the GI50 (EKVX NSCLC) was 2.49 µM and the TGI (EKVX NSCLC) was 9.58 µM. For the same compound, the GI50 (HL-60(TB) leukemia) was 1.76 µM, the TGI (HL-60(TB) leukemia) was 3.8 µM and the GI50 (UO-31 renal) was 1.37 µM. It also gave a TGI (UO-31 renal) of 2.72 µM, a GI50 (MDA-MB-435) of 1.74 µM and a TGI (MDA-MB-435) of 3.35 µM. For the same compound, the GI50 (SNB-19 CNS) was 3.05 µM, the TGI (SNB-19 CNS) was 11.4 µM and the GI50 (HOP-62 NSCLC) was 1.85 µM. The TGI (HOP-62 NSCLC) was 3.81 µM, the GI50 (HOP-92 NSCLC) was 0.836 µM and the TGI (HOP-92 NSCLC) was 3.09 µM. The GI50 (MCF7 breast) was 1.72 µM, the TGI (MCF7 breast) was 4.12 µM and the GI50 (HS 578T breast) was 1.7 µM. For the same compound, the TGI (HS 578T breast) was 4.94 µM, the GI50 (NCI/ADR-RES ovarian) was 2.64 µM and the TGI (NCI/ADR-RES ovarian) was 8.66 µM. For the same compound, the GI50 (OVCAR-5 ovarian) was 2.48 µM, the TGI (OVCAR-5 ovarian) was 7.33 µM and the GI50 (HCC-2998 colon) was 1.99 µM. The TGI (HCC-2998 colon) was 3.98 µM, the GI50 (A498 renal) was 1.94 µM and the TGI (A498 renal) was 4.95 µM. For the same compound, the GI50 (SF-539 CNS) was 1.63 µM, the TGI (SF-539 CNS) was 3.11 µM and the GI50 (NCI-H23 lung) was 2.36 µM. The TGI (NCI-H23 lung) was 6.62 µM, the GI50 (SF-295 CNS) was 1.94 µM and the TGI (SF-295 CNS) was 3.82 µM. For the same compound, the GI50 (IGROV1 ovarian) was 2.04 µM, the TGI (IGROV1 ovarian) was 7.31 µM and the GI50 (A549 NSCLC) was 3.05 µM. For the same compound, the TGI (A549 NSCLC) was 11 µM, the GI50 (RPMI-8226 leukemia) was 1.5 µM and the TGI (RPMI-8226 leukemia) was 3.79 µM. The GI50 (CAKI-1 renal) was 1.98 µM, the TGI (CAKI-1 renal) was 4.05 µM and the GI50 (ACHN renal) was 2.68 µM. For the same compound, the TGI (ACHN renal) was 7.97 µM, the GI50 (PC-3 prostate) was 1.94 µM and the TGI (PC-3 prostate) was 4.84 µM. It also gave a GI50 (K-562 leukemia) of 1.63 µM, a TGI (K-562 leukemia) of 4.61 µM and a GI50 (NCI-H522 lung) of 1.97 µM. For the same compound, the TGI (NCI-H522 lung) was 4.34 µM, the GI50 (UACC-257 melanoma) was 1.94 µM and the TGI (UACC-257 melanoma) was 4.12 µM. The GI50 (HCT-116 colon) was 1.62 µM, the TGI (HCT-116 colon) was 3.14 µM and the GI50 (KM12 colon) was 2.84 µM. For the same compound, the TGI (KM12 colon) was 9.07 µM, the GI50 (SF-268 CNS) was 2.42 µM and the TGI (SF-268 CNS) was 9.2 µM. For the same compound, the GI50 (NCI-H460 lung) was 2.06 µM, the TGI (NCI-H460 lung) was 4.64 µM and the GI50 (DU-145 prostate) was 3.9 µM. The TGI (DU-145 prostate) was 14.6 µM, the GI50 (OVCAR-8 ovarian) was 2.27 µM and the TGI (OVCAR-8 ovarian) was 6.34 µM. For the same compound, the GI50 (SN12C renal) was 1.64 µM, the TGI (SN12C renal) was 4.57 µM and the GI50 (T-47D breast) was 1.72 µM. For the same compound, the TGI (T-47D breast) was 4.79 µM, the GI50 (NCI-H226 lung) was 1.88 µM and the TGI (NCI-H226 lung) was 5.19 µM. It also gave a GI50 (COLO 205 colon) of 1.81 µM, a TGI (COLO 205 colon) of 3.57 µM and a GI50 (786-0 renal) of 1.6 µM. The TGI (786-0 renal) was 3.29 µM, the GI50 (HT29 colon) was 1.3 µM and the TGI (HT29 colon) was 3.49 µM.
